In the Kinase Knowledgebase extract (Sharma et al. 2016):

Molecular target: PIK3CA (human) (UniProt P42336)
Assay: Assessment of PIK3CA Kinase Activity

Chain of PIK3CA (human) (P42336 whole entry, looked up): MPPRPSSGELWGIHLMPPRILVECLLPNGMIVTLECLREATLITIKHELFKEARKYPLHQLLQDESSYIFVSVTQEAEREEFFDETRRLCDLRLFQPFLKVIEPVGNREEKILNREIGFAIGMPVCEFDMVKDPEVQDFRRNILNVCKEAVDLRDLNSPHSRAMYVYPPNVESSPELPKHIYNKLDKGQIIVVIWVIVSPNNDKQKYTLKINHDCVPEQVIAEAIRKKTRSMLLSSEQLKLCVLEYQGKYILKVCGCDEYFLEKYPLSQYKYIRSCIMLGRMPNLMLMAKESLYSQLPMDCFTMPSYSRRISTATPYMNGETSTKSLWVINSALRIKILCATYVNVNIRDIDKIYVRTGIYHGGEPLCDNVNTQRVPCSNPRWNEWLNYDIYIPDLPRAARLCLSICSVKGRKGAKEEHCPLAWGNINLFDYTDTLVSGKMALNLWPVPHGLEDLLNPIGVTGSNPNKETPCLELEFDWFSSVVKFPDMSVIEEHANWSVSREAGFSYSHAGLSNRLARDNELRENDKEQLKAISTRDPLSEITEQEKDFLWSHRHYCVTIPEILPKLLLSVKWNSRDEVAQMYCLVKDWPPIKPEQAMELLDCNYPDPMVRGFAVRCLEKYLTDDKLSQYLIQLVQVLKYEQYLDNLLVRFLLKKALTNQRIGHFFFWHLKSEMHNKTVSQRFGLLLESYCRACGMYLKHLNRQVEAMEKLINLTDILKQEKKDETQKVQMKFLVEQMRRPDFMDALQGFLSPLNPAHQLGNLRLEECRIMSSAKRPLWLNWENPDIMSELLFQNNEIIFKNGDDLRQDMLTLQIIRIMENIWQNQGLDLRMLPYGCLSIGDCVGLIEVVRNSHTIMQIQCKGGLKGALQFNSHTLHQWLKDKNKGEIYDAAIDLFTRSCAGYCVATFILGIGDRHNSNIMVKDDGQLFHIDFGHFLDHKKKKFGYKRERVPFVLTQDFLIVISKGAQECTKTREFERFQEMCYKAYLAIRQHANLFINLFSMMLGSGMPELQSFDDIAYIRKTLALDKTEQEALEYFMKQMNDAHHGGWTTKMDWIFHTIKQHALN

IC50, < 1000 nM:
N#Cc1ccc2c(c1)OCCn1cc(-c3nc(N)nn3CC(F)(F)F)nc1-2
Cc1nc(-c2ccc3c(c2)OCCn2cc(-c4ncnn4C(C)C)nc2-3)cn1CCO
CCOC(=O)C(C)(C)n1cc(-c2ccc3c(c2)OCCn2cc(-c4nc(C)nn4C(C)C)nc2-3)cn1
CC(C)n1ncnc1-c1cn2c(n1)-c1cc(NCC(O)CO)ncc1OCC2 (stereo not drawn)
Cc1nc(-c2cn3c(n2)-c2ccc([C@@H]4CCCN4C(N)=O)cc2OCC3)n(C(C)C)n1
CC(C)n1ncnc1-c1cc2n(n1)-c1cc(CN3CCNC(=O)C3)ccc1OCC2
Cc1nc(-c2cn3c(n2)-c2ccc(C4CCN(CCO)CC4)cc2OCC3)n(C(C)C)n1
C[C@H](Oc1ccc2c(c1)OCCn1cc(-c3ncnn3C3CC3)nc1-2)C(N)=O
CC(C)n1ncnc1-c1cn2c(n1)-c1ccc(C3CCN(CCO)CC3)cc1OCC2
CC(=O)N1CC(c2ccc3c(c2)-n2nc(-c4ncnn4C(C)C)cc2CCO3)C1
CC(C)n1nc(N)nc1-c1cn2c(n1)-c1cc(-c3ccccc3)ccc1OCC2
CC(C)n1ncnc1-c1cn2c(n1)-c1cnc(N3CC(O)C3)cc1OCC2
COCc1nc(-c2cn3c(n2)-c2ccc(C)cc2OCC3)n(C(C)C)n1
Cc1nc(-c2cn3c(n2)-c2cnc(N4CC(F)(F)C[C@H]4C(N)=O)cc2OCC3)n(C(C)C)n1
Cc1nc(-c2ccc3c(c2)OCCn2cc(-c4ncnn4C(C)C)nc2-3)cn1CC(C)(C)O
FC(F)(F)Cn1ncnc1-c1cc2n(n1)-c1cc(C3CCNCC3)ccc1OCC2
Cc1nc(-c2cn3c(n2)-c2ccc(-c4cn(CC(C)(C)O)cn4)cc2OCC3)n(C(C)C)n1
Cc1nc(-c2cn3c(n2)-c2ccc(OC(C)C)cc2OCC3)n(C(C)C)n1
CC(C)n1ncnc1-c1cn2c(n1)-c1cnc(OCC(N)=O)cc1OCC2
CC(C)n1ncnc1-c1cc2n(n1)-c1cc(C3CN(C(=O)CO)C3)ccc1OCC2
CSc1nc(-c2cn3c(n2)-c2ccc(Br)cc2OCC3)n(C(C)C)n1
Cc1nc(-c2cn3c(n2)-c2ccc(-c4cnn(CCO)c4)cc2OCC3)n(C)n1
Cc1nc(-c2cn3c(n2)-c2cnc(N4C[C@@H](F)C[C@H]4C(N)=O)cc2OCC3)n(C(C)C)n1
CC(C)N1CC(NC(=O)c2ccc3c(c2)-n2nc(-c4ncnn4C(C)C)cc2CCO3)C1
CCOc1ccc2c(c1)OCCn1cc(-c3nc(C)nn3C(C)C)nc1-2
Clc1ccccc1-n1ncnc1-c1cn2c(n1)-c1cc(-c3ccccc3)ccc1OCC2
CC(C)n1ncnc1-n1cc2c(n1)-c1ccc(Br)cc1OCC2
CC(C)n1ncnc1-n1cc2c(n1)-c1ccc(-c3cnn(CCO)c3)cc1OCC2
CC(C)n1ncnc1-c1cn2c(n1)-c1ccc(-c3ccccc3C(N)=O)cc1OCC2
CC(C)n1ncnc1-c1cn2c(n1)-c1ccc(C(=O)NCCS(C)(=O)=O)cc1OCC2
Oc1ccc2c(c1)OCCn1cc(-c3ncnn3CC(F)(F)F)nc1-2
CC(C)n1ncnc1-c1cn2c(n1)-c1ccc(OCC(F)(F)F)cc1OCC2
CC(C)(CO)NC(=O)c1ccc2c(c1)-c1nc(-c3ncnn3-c3ccccc3Cl)cn1CCO2
C[C@H](Oc1ccc2c(c1)OCCn1cc(-c3ncnn3-c3ccc(F)cc3F)nc1-2)C(N)=O
CC(C)n1ncnc1-c1cn2c(n1)-c1cnc(N3CCC(C(N)=O)CC3)cc1OCC2
NC(=O)CNc1ccc2c(c1)OCCn1cc(-c3ncnn3CC(F)(F)F)nc1-2
CC(C)n1ncnc1-c1cn2c(n1)-c1cc(C(N)=O)ccc1OCC2
CC(C)n1nccc1-c1cn2c(n1)-c1cnc(N3CCC[C@H]3C(N)=O)cc1OCC2
CONC(=O)c1ccc2c(c1)OCCn1cc(-c3ncnn3C(C)C)nc1-2
Fc1ccc(-n2ncnc2-c2cn3c(n2)-c2cnc(NCCCn4ccnc4)cc2OCC3)c(F)c1
CC(C)n1ncnc1-c1cn2c(n1)-c1ccc([C@@H](C)C(N)=O)cc1OCC2
Cc1nc(-c2cn3c(n2)-c2ccc(-c4cnn(C5CN(C(=O)[C@H](C)O)C5)c4)cc2OCC3)n(C(C)C)n1
CC(C)n1ncnc1-n1cc2c(n1)-c1cc(C(=O)N3CCNCC3)ccc1OCC2
CC(C)n1ncnc1-c1cn2c(n1)-c1ccc(C3=CCN(C)CC3C(N)=O)cc1OCC2 (stereo not drawn)
CCCC(Oc1ccc2c(c1)OCCn1cc(-c3ncnn3C(C)C)nc1-2)C(N)=O (stereo not drawn)
NC(=O)C1CC1c1ccc2c(c1)OCCn1cc(-c3ncnn3CC(F)(F)F)nc1-2 (stereo not drawn)
CC(C)n1ncnc1-c1cc2n(n1)-c1cc(C(=O)Nc3ccon3)ccc1OCC2
CC(C)n1ncnc1-c1cn2c(n1)-c1cnc(N3CCC(O)CC3)cc1OCC2
CC(C)n1ncnc1-c1cc2n(n1)-c1cc(C(=O)N3CCS(=O)(=O)CC3)ccc1OCC2
CC(C)NC(=O)CN1CCC(c2ccc3c(c2)OCCn2cc(-c4ncnn4C(C)C)nc2-3)CC1
CC(C)n1ncnc1-c1cc2n(n1)-c1cc(C(=O)N3CCC(O)CC3)ccc1OCC2
Cc1nc(-c2cn3c(n2)-c2ccc(-c4cnc(N)nc4)cc2OCC3)n(C(C)C)n1
CC(C)n1ncnc1-c1cn2c(n1)-c1ccc(CC(=O)NO)cc1OCC2
Cc1nc(-c2cn3c(n2)-c2ccc(CNC(N)=O)cc2OCC3)n(-c2ccc(F)cc2F)n1
CC(C)n1nccc1-c1cn2c(n1)-c1cc(C(N)=O)ccc1OCC2
CC(C)n1nc(CN(C)C)nc1-c1cn2c(n1)-c1ccccc1OCC2
Cc1nc(-c2cn3c(n2)-c2ccc(-c4cccnc4)cc2OCC3)n(C(C)C)n1
Cc1ccc2c(c1)-c1nc(-c3nc(C)nn3C(C)C)cn1CCO2
O=c1[nH]cccc1-c1ccc2c(c1)-c1nc(-c3ncnn3CC(F)(F)F)cn1CCO2
CC(C)n1nc(N)nc1-c1cn2c(n1)-c1ccc(-c3cnn(CCO)c3)cc1OCC2
OCCN1CC(c2ccc3c(c2)OCCc2cn(-c4ncnn4-c4ccc(F)cc4F)nc2-3)C1
CS(=O)(=O)CCNC(=O)c1ccc2c(c1)OCCn1cc(-c3ncnn3-c3ccccc3Cl)nc1-2
O=C(c1ccc2c(c1)-c1nc(-c3ncnn3CC(F)(F)F)cn1CCO2)N1CCC(O)CC1
